From patent US20250059182A1, “SOS1 INHIBITORS” (Mirati Therapeutics, Inc., priority 2021, published 2025)
Structures can show the parent of a compound that is named as a salt. Where two headings read alike, the source gives them in different places.

Assays:
[1] = system: pERK in MKN1 cells; test: pERK inhibition, In-Cell Western (LI-COR Odyssey), MKN1 cells; assay type: cell-based; details: Homo sapiens
Outline: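 MKN1 cells were exposed for about 0.5–1 h at 37 °C to nine 3-fold dilutions starting at 10 µM. Cells were then fixed in formaldehyde, permeabilised with methanol, and immunostained for pERK and GAPDH with near-infrared secondary antibodies. GAPDH-normalised pERK signal relative to vehicle gave % inhibition, from which IC50 was fitted.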

[2] = target: T1, recombinant human SOS1 polypeptide (amino acids 560-1049) (Homo sapiens, UniProt Q07889); test: HTRF displacement assay: inhibition of labeled tracer binding to SOS1
T1 construct: corresponding to amino acids 560-1049, expressed in E. Coli; made in house; host or cells: E. coli
T1 sequence (Q07889 560-1049): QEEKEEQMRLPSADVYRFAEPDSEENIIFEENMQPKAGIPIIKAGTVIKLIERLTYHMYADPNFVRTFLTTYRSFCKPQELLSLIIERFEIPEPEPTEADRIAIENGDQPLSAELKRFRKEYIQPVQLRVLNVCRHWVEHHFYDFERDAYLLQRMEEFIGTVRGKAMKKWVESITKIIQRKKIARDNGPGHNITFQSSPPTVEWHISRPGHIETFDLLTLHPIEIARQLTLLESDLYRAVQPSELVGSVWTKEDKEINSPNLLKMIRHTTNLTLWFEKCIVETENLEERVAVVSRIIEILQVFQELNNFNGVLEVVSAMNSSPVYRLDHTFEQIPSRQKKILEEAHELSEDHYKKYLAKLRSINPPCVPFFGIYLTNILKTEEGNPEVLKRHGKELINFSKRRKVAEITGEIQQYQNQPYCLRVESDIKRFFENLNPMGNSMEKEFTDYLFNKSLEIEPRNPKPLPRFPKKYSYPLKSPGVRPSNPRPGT

[3] = MKN-1, Table B, MKN1 or H358 cells (table does not say which), 0.5-1 hour incubation, read-out: IC50 (nM), pERK inhibition
[4] = Table A, Morrison equation for competitive binding
[5] = MKN-1, Table B1, MKN1 or H358 cells (table does not say which), 0.5-1 hour incubation, read-out: IC50 (nM), pERK inhibition
[6] = Table A1, Morrison equation for competitive binding

Cc1nnc(N[C@H](C)c2cccc(C(F)(F)F)c2F)c2cc(N3CCOCC3)c(C#N)cc12 [Example 6-18, (R)-1-((1-(2-fluoro-3-(trifluoromethyl)phenyl)ethyl)amino)-4-methyl-7-morpholinophthalazine-6-carbonitrile]
IC50 [1, 3]: 311 nM
Ki [2, 4]: 7.06 nM

Cc1c(C#N)cccc1[C@@H](C)Nc1nnc(C)c2cc(C#N)c(N3CCN(C)CC3)cc12 [Example 6-19, (R)-1-((1-(3-cyano-2-methylphenyl)ethyl)amino)-4-methyl-7-(4-methylpiperazin-1-yl)phthalazine-6-carbonitrile]
IC50 [1, 3]: 222 nM
Ki [2, 4]: 2.94 nM

Cc1nnc(N[C@H](C)c2cccc(C(F)(F)F)c2F)c2cc(N3C[C@H]4C[C@@H]3CO4)c(C#N)cc12 [Example 6-20, 7-((1R,4R)-2-oxa-5-azabicyclo[2.2.1]heptan-5-yl)-1-(((R)-1-(2-fluoro-3-(trifluoromethyl)phenyl)ethyl)amino)-4-methylphthalazine-6-carbonitrile]
IC50 [1, 3]: 218 nM
Ki [2, 4]: 1.4 nM

Cc1c(C#N)cccc1[C@@H](C)Nc1nnc(C)c2cc(Cl)c(N3CCN(C)CC3)cc12 [Example 7-1, (R)-3-(1-((6-chloro-4-methyl-7-(4-methylpiperazin-1-yl)phthalazin-1-yl)amino)ethyl)-2-methylbenzonitrile]
IC50 [1, 3]: 150 nM
Ki [2, 4]: 1.79 nM

Cc1c(C#N)cccc1[C@@H](C)Nc1nnc(C)c2cnc(N3CCCCC3)cc12 [Example P-3, (R)-2-methyl-3-(1-((4-methyl-7-(piperidin-1-yl)pyrido[3,4-d]pyridazin-1-yl)amino)ethyl)benzonitrile]
IC50 [1, 5]: 302 nM
Ki [2, 6]: 2.22 nM

COC1(C)CCN(c2cc3c(N[C@H](C)c4cccc(C#N)c4C)nnc(C)c3cn2)CC1 [Example P-9, (R)-3-(1-((7-(4-methoxy-4-methylpiperidin-1-yl)-4-methylpyrido[3,4-d]pyridazin-1-yl)amino)ethyl)-2-methylbenzonitrile, formic acid salt]
IC50 ([1]; MKN-1, read-out: IC50 (nM), pERK inhibition): 90.2 nM
Ki [2, 6]: 0.989 nM

COC1CCN(c2cc3c(N[C@H](C)c4cccc(C#N)c4C)nnc(C)c3cn2)CC1 [Example P-15, (R)-3-(1-((7-(4-methoxypiperidin-1-yl)-4-methylpyrido[3,4-d]pyridazin-1-yl)amino)ethyl)-2-methylbenzonitrile]
IC50 [1, 5]: 66.1 nM
Ki [2, 6]: 1.12 nM

Cc1c(C#N)cccc1[C@@H](C)Nc1nnc(C)c2cnc(N3CCn4cnnc4C3)cc12 [Example P-21, (R)-3-(1-((7-(5,6-dihydro-[1,2,4]triazolo[4,3-a]pyrazin-7(8H)-yl)-4-methylpyrido[3,4-d]pyridazin-1-yl)amino)ethyl)-2-methylbenzonitrile]
IC50 [1, 5]: 2560 nM
Ki [2, 6]: 2.17 nM

Cc1c(C#N)cccc1[C@@H](C)Nc1nnc(C)c2cnc(N3CCn4c(C)nnc4C3)cc12 [Example P-27, (R)-2-methyl-3-(1-((4-methyl-7-(3-methyl-5,6-dihydro-[1,2,4]triazolo[4,3-a]pyrazin-7(8H)-yl)pyrido[3,4-d]pyridazin-1-yl)amino)ethyl)benzonitrile]
IC50 [1, 5]: > 10000 nM
Ki [2, 6]: 1.26 nM

Cc1c(C#N)cccc1[C@@H](C)Nc1nnc(C)c2cnc(N3CCn4c(nnc4C(F)(F)F)C3)cc12 [Example P-33, (R)-2-methyl-3-(1-((4-methyl-7-(3-(trifluoromethyl)-5,6-dihydro-[1,2,4]triazolo[4,3-a]pyrazin-7(8H)-yl)pyrido[3,4-d]pyridazin-1-yl)amino)ethyl)benzonitrile]
IC50 [1, 5]: 121 nM
Ki [2, 6]: 6.92 nM

Cc1c(C#N)cccc1[C@@H](C)Nc1nnc(C)c2cnc(N3CCc4c(cnn4C)C3)cc12 [Example P-39, (R)-2-methyl-3-(1-((4-methyl-7-(1-methyl-1,4,6,7-tetrahydro-5H-pyrazolo[4,3-c]pyridin-5-yl)pyrido[3,4-d]pyridazin-1-yl)amino)ethyl)benzonitrile]
IC50 [1, 5]: 96.9 nM
Ki [2, 6]: 1.1 nM

Cc1c(C#N)cccc1[C@@H](C)Nc1nnc(C)c2cnc(N3CCc4c(ncn4C)C3)cc12 [Example P-45, (R)-2-methyl-3-(1-((4-methyl-7-(1-methyl-1,4,6,7-tetrahydro-5H-imidazo[4,5-c]pyridin-5-yl)pyrido[3,4-d]pyridazin-1-yl)amino)ethyl)benzonitrile]
IC50 [1, 5]: 176 nM
Ki [2, 6]: 0.777 nM

Cc1c(C#N)cccc1[C@@H](C)Nc1nnc(C)c2cnc(N3CCc4ncn(C)c4C3)cc12 [Example P-57, (R)-2-methyl-3-(1-((4-methyl-7-(3-methyl-3,4,6,7-tetrahydro-5H-imidazo[4,5-c]pyridin-5-yl)pyrido[3,4-d]pyridazin-1-yl)amino)ethyl)benzonitrile]
IC50 [1, 5]: 914 nM
Ki [2, 6]: 1.17 nM

COC1(c2cc3c(N[C@H](C)c4cccc(C#N)c4C)nnc(C)c3cn2)CCN(C)CC1 [Example P-69, (R)-3-(1-((7-(4-methoxy-1-methylpiperidin-4-yl)-4-methylpyrido[3,4-d]pyridazin-1-yl)amino)ethyl)-2-methylbenzonitrile]
IC50 [1, 5]: 849 nM
Ki [2, 6]: 51.8 nM

COC1(c2cc3c(N[C@H](C)c4cccc(C#N)c4C)nnc(C)c3cn2)CCN(C(C)=O)CC1 [Example P-75, (R)-3-(1-((7-(1-acetyl-4-methoxypiperidin-4-yl)-4-methylpyrido[3,4-d]pyridazin-1-yl)amino)ethyl)-2-methylbenzonitrile]
IC50 [1, 5]: 568 nM
Ki [2, 6]: 17.6 nM

COC1(c2cc3c(N[C@H](C)c4cccc(C#N)c4C)nnc(C)c3cn2)CCOCC1 [Example P-81, (R)-3-(1-((7-(4-methoxytetrahydro-2H-pyran-4-yl)-4-methylpyrido[3,4-d]pyridazin-1-yl)amino)ethyl)-2-methylbenzonitrile]
IC50 [1, 5]: 565 nM
Ki [2, 6]: 61.7 nM

COC1(c2cc3c(N[C@H](C)c4cccc(C#N)c4C)nnc(C)c3cc2F)CCN(C)CC1 [Example P-153, (R)-3-(1-((6-fluoro-7-(4-methoxy-1-methylpiperidin-4-yl)-4-methylphthalazin-1-yl)amino)ethyl)-2-methylbenzonitrile]
IC50 [1, 5]: 909 nM
Ki [2, 6]: 16.6 nM

COC1(c2cc3c(N[C@H](C)c4cccc(C#N)c4C)nnc(C)c3cc2F)CCN(C(C)=O)CC1 [Example P-159, (R)-3-(1-((7-(1-acetyl-4-methoxypiperidin-4-yl)-6-fluoro-4-methylphthalazin-1-yl)amino)ethyl)-2-methylbenzonitrile]
IC50 [1, 5]: 100 nM
Ki [2, 6]: 2.2 nM

COC1(c2cc3c(N[C@H](C)c4cccc(C#N)c4C)nnc(C)c3cc2F)CCOCC1 [Example P-165, (R)-3-(1-((6-fluoro-7-(4-methoxytetrahydro-2H-pyran-4-yl)-4-methylphthalazin-1-yl)amino)ethyl)-2-methylbenzonitrile]
IC50 [1, 5]: 352 nM
Ki [2, 6]: 4.66 nM

Cc1nnc(N[C@H](C)c2cccc(C(C)(F)F)c2F)c2cc(N3CCOCC3)ncc12 [Example P-169, (R)-N-(1-(3-(1,1-difluoroethyl)-2-fluorophenyl)ethyl)-4-methyl-7-morpholinopyrido[3,4-d]pyridazin-1-amine]
IC50 [1, 5]: 71.4 nM
Ki [2, 6]: 0.827 nM

Cc1nnc(N[C@H](C)c2cccc(C(C)(F)F)c2F)c2cc(N(C)C)ncc12 [Example P-170, (R)-N1-(1-(3-(1,1-difluoroethyl)-2-fluorophenyl)ethyl)-N7,N7,4-trimethylpyrido[3,4-d]pyridazine-1,7-diamine]
IC50 [1, 5]: 192 nM
Ki [2, 6]: 2.18 nM

Cc1nnc(N[C@H](C)c2cccc(C(C)(F)F)c2F)c2cc(N3CCN4CCOC[C@@H]4C3)ncc12 [Example P-171, N-((R)-1-(3-(1,1-difluoroethyl)-2-fluorophenyl)ethyl)-7-((S)-hexahydropyrazino[2,1-c][1,4]oxazin-8(1H)-yl)-4-methylpyrido[3,4-d]pyridazin-1-amine]
IC50 [1, 5]: 28.5 nM
Ki [2, 6]: 0.425 nM

Cc1c(C#N)cccc1[C@@H](C)Nc1nnc(C)c2cc(F)c(-c3ccc(=O)n(C)c3)cc12 [Example P-172, (R)-3-(1-((6-fluoro-4-methyl-7-(1-methyl-6-oxo-1,6-dihydropyridin-3-yl)phthalazin-1-yl)amino)ethyl)-2-methylbenzonitrile]
IC50 [1, 5]: 457 nM
Ki [2, 6]: 12.5 nM

Cc1nnc(N[C@H](C)c2cccc(C(C)(F)F)c2F)c2cc(-c3ccc(=O)n(C)c3)c(F)cc12 [Example P-173, (R)-5-(4-((1-(3-(1,1-difluoroethyl)-2-fluorophenyl)ethyl)amino)-7-fluoro-1-methylphthalazin-6-yl)-1-methylpyridin-2(1H)-one]
IC50 [1, 5]: 573 nM
Ki [2, 6]: 8.31 nM

Cc1c(C#N)cccc1[C@@H](C)Nc1nnc(C)c2cnc(-c3ccc(=O)n(C)c3)cc12 [Example P-174, (R)-2-methyl-3-(1-((4-methyl-7-(1-methyl-6-oxo-1,6-dihydropyridin-3-yl)pyrido[3,4-d]pyridazin-1-yl)amino)ethyl)benzonitrile]
IC50 [1, 5]: 1330 nM
Ki [2, 6]: 43.5 nM
